Results from PMC6829886, “Inhibition of Non-Small Cell Lung Cancer Cells by Oxy210, an Oxysterol-Derivative that Antagonizes TGFβ and Hedgehog Signaling” (Cells, 2019).
Read-outs that look alike come from different tables or passages of the source.

Experiments:
Liver X Receptor (LXR) = test: LXR activity, summary of drug-like properties; assay type: cell-based
A549 cells = test: Cell counting (proliferation) assay in A549 cells; assay type: cell-based, human; design: IC10 Estimate, dataset 2 - Fig 7a, log 10 scale Y: unit not given here; conditions: for IC50 / IC90: Homo sapiens
Procedure: (§1) A549 and H2030 cells cultured in RPMI 1640 containing 5% FBS in 12 well-plates at 20% confluence were treated with Oxy210 for 6 days and then trypsinized, spun down and resuspended in fresh medium. For the Carboplatin (CP) and Oxy210 co-treatment experiments, A549 cells cultured in RPMI 1640 containing 2% FBS in 12 well-plates at 20% confluence were treated with CP at different concentrations in the presence or absence of Oxy210 for 6 days. For the TGFβ-induced drug resistance assay, A549 cells cultured in RPMI 1640 containing 2% FBS in 12 well-plates at 10% confluence were pre-treated with TGFβ1 alone or together with Oxy210 for 3 days, and then treated with 20 μM CP for 4 days. An aliquot of cell suspension was applied to a hemocytometer and the cells were then counted under a light microscope.
(§2) Statistical analyses were performed using the StatView 5 program (SAS Institute, Cary, NC, USA). All p values were calculated using ANOVA and Fisher’s projected least significant difference (PLSD) significance test. A value of p < 0.05 was considered significant. The IC 50 dose-response curves shown in Figure 4b and Figure 7a–c were modeled using a five-parameter logistic model. This model allows for asymmetric curves and automatically estimates the mean maximum and minimum response. Based on this model, IC 50 values were estimated corresponding to the dose halfway between min and max response. Models of dose versus response and dose versus log response were also evaluated (see Supplementary Materials). The R square statistic was computed as a measure of model fit.
(§3) Figure 7 Inhibition of NSCLC cell proliferation by Oxy210. A549 (a), (c) and H2030 (b) cells were treated with the test agents as indicated in RPMI 1640 containing 5% FBS for 5 days and then were trypsinized and counted as described in Methods and Materials section. Data from a representative experiment are reported as the mean of triplicate determinations ± SD (* p < 0.05 vs. control; ** p < 0.01 vs. control).

H2030 cells = test: Cell counting (proliferation) assay in H2030 cells; assay type: cell-based, human; conditions: for IC50 / IC90: Homo sapiens, NCI-H2030
Procedure: as §1, §2, §3

## C[C@]12CC[C@H]3[C@@H](CC=C4C[C@@H](O)CC[C@@]43C)[C@@H]1CC[C@@H]2[C@](C)(O)CCc1cccnc1 [Oxy210, (3S,8S,9S,10R,13S,14S,17S)-17-((R)-2-hydroxy-4-(pyridin-3-yl)butan-2-yl)-10,13-dimethyl-2,3,4,7,8,9,10,11,12,13,14,15,16,17-tetradecahydro-1H-cyclopenta[a]phenanthren-3-ol]
Liver X Receptor (LXR)
  LXR activity: devoid of undesirable Liver X Receptor (LXR) activity
A549 cells; A549 cells, 2 μM Oxy210
  fold reduction (left shift) of the IC50 of CP: about four-fold
A549 cells; A549 cells, non-cytotoxic concentrations of CP (1 to 10 μM)
  anti-proliferation potential of CP when combined: significantly improved
A549 cells; A549 cells/well, log 10 scale Y
  IC10 Estimate, dataset 2 - Fig 7a, log 10 scale Y: 2.61
A549 cells; A549 cells/well, original scale Y
  IC10 Estimate, dataset 2 - Fig 7a, original scale Y: 1920 nM
A549 cells; A549 cells, 5% FBS, ± SE, read-out: IC50, anti-proliferative effect (cell counting)
  IC50: 2630 ± 1010 nM
A549 cells; A549 cells/well, log 10 scale Y, read-out: IC 50 Estimate, dataset 2 - Fig 7a, log 10 scale Y (converted)
  IC50: 4230 nM
A549 cells; A549 cells/well, log 10 scale Y, read-out: IC90 Estimate, dataset 2 - Fig 7a, log 10 scale Y (converted)
  IC90: 6870 nM
A549 cells; A549 cells/well, original scale Y, read-out: IC90 Estimate, dataset 2 - Fig 7a, original scale Y
  IC90: 4180 nM
H2030 cells; H2030 cells/well, log 10 scale Y
  IC10 Estimate, dataset 3 - Fig 7b, log 10 scale Y: 1.89
H2030 cells; H2030 cells/well, original scale Y
  IC10 Estimate, dataset 3 - Fig 7b, original scale Y: 420 nM
H2030 cells; H2030 cells, 5% FBS, ± SE, read-out: IC50, anti-proliferative effect (cell counting)
  IC50: 1660 ± 250 nM
H2030 cells; H2030 cells/well, log 10 scale Y, read-out: IC 50 Estimate, dataset 3 - Fig 7b, log 10 scale Y (converted)
  IC50: 2520 nM
H2030 cells; H2030 cells/well, log 10 scale Y, read-out: IC90 Estimate, dataset 3 - Fig 7b, log 10 scale Y (converted)
  IC90: 3370 nM
H2030 cells; H2030 cells/well, original scale Y, read-out: IC90 Estimate, dataset 3 - Fig 7b, original scale Y
  IC90: 4090 nM
